We go through 1 compound from US20160184274A1, “Methods for inhibiting mesenchymal phenotype after epithelial-to-mesenchymal transition” (Fibrostatin, S.L., priority 2014, published 2016).

Entries after “also recorded” stand apart in the source; their conditions may differ.

For assay [1], the system named is mesenchymal A549 spheroids. Briefly: Collagen network in mesenchymal spheroids, confocal microscopy. The class given is cell-based, Human. The protocol:
FIG. 7. T12 disrupts collagen IV network and reduces A549 mesenchymal spheroids viability. A549 spheroids were subjected to EMT induction with TGF-β and TNF-α during 4 days, and treated with T12 (10 μM) or maintained untreated (Cont) for the last 2 days. In A, spheroids were analyzed by immunofluorescence confocal microscopy with anti-α1α2 (IV) antibodies (COL4, white) and DAPI to visualize the cell nuclei (grey). In B, the culture media of the spheroids in A were used for assessing cell death by measuring LDH activity. […] Represented are Means (±SEM).
Three-dimensional spheroid cultures of A549 cells were obtained using a hanging droplet method (Kelm et al., 2003. Biotechnol. Bioeng. 83: 173-180.; Kumar et al., 2013. PLoS One. 8: e68597). Briefly, cells were grown to approximately 80% confluence on adherent tissue-culture flasks. Then cells were trypsinized, dispersed in DMEM/10% FBS, and counted using an automated cell counter (MOXI® Z, Orflo). The cell suspension was diluted to a 10^6 cells/mL-concentration, and 25 μl of the cell suspension were pipetted onto the underside of a sterile 10-cm tissue culture plate lid. Each lid was loaded with approximately 55 droplets. After loading, the lid was placed onto a tissue culture plate containing 6 mL of sterile PBS (phosphate-buffered saline) and incubated for 48 hours to facilitate spheroid formation. […]

A further assay concerns A7C11. Briefly: Collagen IV expression in A7C11. The assay is classed as cell-based, murine. As to conditions: data not shown.
Assay [2] relates to 4T1 mouse breast cancer cells. Briefly: Murine breast cancer 4T1 model. The class given is in vivo, Balb/c mice. The protocol:
FIG. 10. […] Control, n=43; T12, n=18. FIG. 11. T12 targets circulating 4T1 cancer cells. A, Balb/c female mice were inoculated with 4T1 mouse breast cancer cells at mammary fat pads. At day 20 after cell inoculation mice were subjected to PET analysis for metastases detection. White arrows denote metastatic foci at the spinal cord. B, Balb/c female from A were either left untreated (Control), or were treated with T12 in drinking water from day 20. At day 35 blood was seeded in the presence of 6-thioguanine and circulating 4T1 cells selected and further cultured. Shown are phase contrast images of the resulting cultures acquired with an inverted microscope. […] C, circulating 4T1 cells recovered as in B and 4T1 cells were cultured in standard 2D cultures and subjected to RNA extraction, and RNA samples were analyzed by RT-qPCR. Shown are the relative quantities (RQ) of the indicated mRNAs of circulating 4T1 cells using levels from 4T1 cells as reference. D, the cultures in C were treated with the indicated concentrations of T12 for 24 h. Dead cells in culture media were quantified by measuring cell size using an automated cell counter (Moxi Z, Orflo). The number of dead cells in the culture media of the respective untreated cells (−) was used as reference. E, circulating 4T1 cells recovered as in B or 4T1 cells were cultured in ultra-low binding plates and treated with the indicated concentrations of T12 for 9 days, cells were lysed and analyzed by Western blot using antibodies specific for activated caspase 3. The levels of GAPDH were determined for loading control purposes. For other assays, 10^4 4 T1 cells were suspended in 10 μl PBS and subcutaneously injected into the 4th mammary fat pad of 4-week-old Balb/c female mice, and either left untreated or treated since the inoculation day with T12 (12 mg/kg/day in drinking water). Primary tumors formed and dimensions were periodically measured with a caliper.

Take `COc1ccc(-c2ccc(-c3cccc(C)c3)c(C)c2)c(CCC(=O)O)c1` [T12, 3-[4″-methoxy-3,2′-dimethyl-(1,1′;4′,1″)terphenyl-2″-yl] propionic acid]: the “collagen IV network formation” value in assay [1] (T12 10 μM for the last 2 days of 4-day EMT induction with TGF-β and TNF-α, FIG. 7A) is listed as “inhibited collagen IV network formation”. In addition, in assay [1] (data not shown), the “fibrillary collagen I” value is “sharply reduced fibrillary collagen I”. Also, the “collagen IV expression” value with A7C11 was “significantly reduced collagen IV expression”. Besides, the “tumor volume (anti-tumor activity)” value in assay [2] (T12 12 mg/kg/day in drinking water from inoculation, FIG. 10B, 12 mg/kg/day) is given as “displayed anti-tumor activity; also recorded: differences are statistically significant”. In addition, the “superficial metastasis per lung” value in assay [2] (T12 12 mg/kg/day in drinking water, day 25, FIG. 10C, 12 mg/kg/day) is given as “inhibited metastasis formation; also recorded: Differences are statistically significant”. Moreover, the “recovery of circulating 4T1 tumor cells from blood” value in assay [2] (T12 in drinking water from day 20, blood seeded at day 35 with 6-thioguanine, FIG. 11B) is “impeded the isolation of circulating 4T1 tumor cells; also recorded: could not be recovered”.
